Experimental data reported in patent publication US20150352134A1, “COMPOSITION FOR TOPICAL SKIN APPLICATION CONTAINING GINSENOSIDE F2 DERIVED FROM HYDROPONIC GINSENG” (AMOREPACIFIC CORPORATION, priority 2012, published 2015).

Tested on: prostaglandin generation in macrophagocytes collected from the abdominal cavity of a mouse
Assay: Prostaglandin generation inhibition in LPS-treated macrophagocytes (ELISA)
Type: cell-based
Conditions: 100 μl of ginsenoside F2
Description: The inflammatory effect is evaluated in terms of the inhibitory effect on prostaglandin generation. Ginsenoside F2 is used to measure the effect on macrophagocytes. Firstly, macrophagocytes collected from the abdominal cavity of a mouse are treated with aspirin to have the final concentration of 500 µM, causing irreversible inhibition on the activity of cyclooxygenase (COX) remaining in the macrophagocytes. Then, 100 μl of the suspension is put in each well of a 96-well culture plate and cultured in an incubator under the conditions of 5% CO2 and 37° C. for 2 hours to immobilize the macrophagocytes on the surface of the container. Subsequently, the immobilized macrophagocytes are washed with PBS three times and used in the inflammatory improvement test. […] Then, the macrophagocytes are treated with 100 μl of ginsenoside F2, and the isolated prostaglandin is quantitatively analyzed by way of ELISA (Enzyme-Linked ImmunoSorbent Assey).
In this regard, the prostaglandin generation inhibitory activity of the ginsenoside F2 is determined by the reduced amount of prostaglandin generated in the LPS-treated group in comparison with the case of the control in terms of the percentage amount of the prostaglandin decreased by treatment with LPS and the sample, while the difference in the amount of the generated prostaglandin between the LPS-treated group and the control group is set to 100%.

CC(C)=CCC[C@](C)(O[C@@H]1O[C@H](CO)[C@@H](O)[C@H](O)[C@H]1O)[C@H]1CC[C@]2(C)[C@@H]1[C@H](O)C[C@@H]1[C@@]3(C)CC[C@H](O[C@@H]4O[C@H](CO)[C@@H](O)[C@H](O)[C@H]4O)C(C)(C)[C@@H]3CC[C@]12C [Ginsenoside F2, ginsenoside F2]
prostaglandin generation (Blank = 100%): 24.2%
